# In US20230348453A1, “HALOGENATED-HETEROARYL AND OTHER HETEROCYCLIC KINASE INHIBITORS, AND USES THEREOF” (iOmx Therapeutics AG, priority 2020, published 2023):
# Like-named read-outs stand apart in the source and are kept apart here.
# What was measured:
# SRC (GST-HIS-tag) = SRC (GST-HIS-tag) (Homo sapiens (Human), UniProt P12931); type: biochemical
# ABL1 wt = ABL1 wt (Homo sapiens (Human), UniProt P00519); type: biochemical
# SIK3 [1] = biological target: T1, SIK3 (Homo sapiens (Human), UniProt Q9Y2K2)
# SIK2 [2] = biological target: T2, SIK2 (Homo sapiens (Human), UniProt Q9H0K1); details: read-out: SIK2 IC50
# in vitro [3] = details: human, microsomes
# in vitro [4] = details: mouse, microsomes
# [5] = Human plasma-protein binding
# [6] = microsomes
# RET = RET (Homo sapiens (Human), UniProt P07949); experiment: biochemical; details: read-out: RET residual activity (%) at 1 μM, 1 μM
# Sequence of RET (P07949 29-1114 limits assumed): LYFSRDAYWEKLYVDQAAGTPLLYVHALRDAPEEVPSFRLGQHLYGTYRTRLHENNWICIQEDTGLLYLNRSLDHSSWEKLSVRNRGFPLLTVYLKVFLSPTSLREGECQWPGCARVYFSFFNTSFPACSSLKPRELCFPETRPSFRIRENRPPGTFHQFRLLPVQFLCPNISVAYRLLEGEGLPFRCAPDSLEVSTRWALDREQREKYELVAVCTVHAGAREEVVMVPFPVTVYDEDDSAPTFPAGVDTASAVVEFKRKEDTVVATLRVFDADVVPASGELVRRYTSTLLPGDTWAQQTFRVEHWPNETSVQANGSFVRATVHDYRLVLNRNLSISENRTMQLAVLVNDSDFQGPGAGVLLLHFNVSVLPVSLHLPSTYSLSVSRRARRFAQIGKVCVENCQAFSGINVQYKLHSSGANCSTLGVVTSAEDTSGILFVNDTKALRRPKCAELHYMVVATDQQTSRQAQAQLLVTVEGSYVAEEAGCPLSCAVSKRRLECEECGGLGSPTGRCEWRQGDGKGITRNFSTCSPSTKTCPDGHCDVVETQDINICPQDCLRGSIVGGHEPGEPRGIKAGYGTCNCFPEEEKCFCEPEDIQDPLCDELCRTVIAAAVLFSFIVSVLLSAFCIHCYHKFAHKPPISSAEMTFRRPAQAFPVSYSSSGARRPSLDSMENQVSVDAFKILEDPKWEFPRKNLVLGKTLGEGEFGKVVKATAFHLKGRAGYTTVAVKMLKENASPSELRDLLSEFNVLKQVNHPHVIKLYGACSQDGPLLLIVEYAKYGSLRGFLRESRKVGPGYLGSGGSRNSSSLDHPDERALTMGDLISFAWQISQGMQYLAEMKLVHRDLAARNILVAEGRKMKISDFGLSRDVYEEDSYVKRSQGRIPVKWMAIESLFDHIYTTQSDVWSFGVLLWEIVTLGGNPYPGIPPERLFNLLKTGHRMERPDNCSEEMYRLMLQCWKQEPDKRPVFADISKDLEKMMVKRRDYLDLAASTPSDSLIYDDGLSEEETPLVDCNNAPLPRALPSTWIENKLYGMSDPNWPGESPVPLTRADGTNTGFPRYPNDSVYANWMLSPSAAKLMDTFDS
# HCK = HCK (Homo sapiens (Human), UniProt P08631); type: biochemical; details: Kinase Profiler
# [7] = microsomes; remark: listed apart in the source
# MDR1 (P-gp) [8] = biological target: T3, MDR1 (P-gp) (Homo sapiens (Human), UniProt P08183); experiment: in vitro; details: dog, MDCK-MDR1, MDCK-MDR1 cells
# CSF1R = CSF1R (Homo sapiens (Human), UniProt P07333); type: biochemical; details: Kinase Profiler
# Sequence of CSF1R (P07333 20-972 limits assumed): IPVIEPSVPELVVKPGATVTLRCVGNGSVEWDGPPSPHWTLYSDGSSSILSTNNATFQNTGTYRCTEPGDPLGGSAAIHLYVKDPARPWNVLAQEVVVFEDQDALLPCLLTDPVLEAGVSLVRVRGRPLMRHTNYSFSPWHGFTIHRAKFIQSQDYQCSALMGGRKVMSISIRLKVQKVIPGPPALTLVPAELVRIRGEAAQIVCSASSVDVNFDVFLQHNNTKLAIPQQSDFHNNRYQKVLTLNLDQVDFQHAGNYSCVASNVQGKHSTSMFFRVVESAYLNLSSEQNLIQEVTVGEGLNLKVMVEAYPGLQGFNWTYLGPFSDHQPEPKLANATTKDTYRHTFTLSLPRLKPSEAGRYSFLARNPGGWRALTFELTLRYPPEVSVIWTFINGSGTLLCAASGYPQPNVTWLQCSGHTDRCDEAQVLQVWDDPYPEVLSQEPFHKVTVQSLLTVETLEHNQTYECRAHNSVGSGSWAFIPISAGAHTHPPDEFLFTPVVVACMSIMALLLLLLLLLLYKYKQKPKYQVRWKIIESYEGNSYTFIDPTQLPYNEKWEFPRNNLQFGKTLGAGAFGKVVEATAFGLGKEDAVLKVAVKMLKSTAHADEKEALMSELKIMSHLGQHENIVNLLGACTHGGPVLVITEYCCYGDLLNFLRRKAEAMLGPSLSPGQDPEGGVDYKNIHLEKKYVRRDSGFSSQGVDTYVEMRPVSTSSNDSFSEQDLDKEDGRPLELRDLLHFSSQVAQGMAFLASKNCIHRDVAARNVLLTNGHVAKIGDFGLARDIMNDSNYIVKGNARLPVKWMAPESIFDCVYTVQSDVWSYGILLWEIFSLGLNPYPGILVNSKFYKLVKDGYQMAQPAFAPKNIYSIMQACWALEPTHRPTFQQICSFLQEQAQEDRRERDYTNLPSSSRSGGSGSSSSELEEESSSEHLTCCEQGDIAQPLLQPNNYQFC
# [9] = Murine plasma protein binding
# [10] = in vivo, po, 30 mg/kg
# BRAF = BRAF (Homo sapiens (Human), UniProt P15056); experiment: biochemical; details: read-out: BRAF residual activity (%) at 1 μM, 1 μM
# in vivo = details: male, CD1, mouse, po, 30 mg/kg
# [11] = mouse, in vivo, po, 30 mg/kg
# [12] = Full pharmacokinetic study in mice; details: for half-life: male, CD1, mouse, plasma
# in vitro [13] = details: dog, MDCK, MDCK-wild type cells
# [14] = Screening PK in mice after 30 mg/kg po
# [15] = test system: MC38 murine tumour cell line; experiment: TNF-sensitised cell viability assay (CellTiter-Glo); details: Mus musculus
# KASUMI-1 cell line = experiment: Growth inhibition (GI50) of AML cell lines; type: cell-based; details: Homo sapiens, Kasumi 1; pMEF2C-positive; read-out: GI50 against KASUMI-1 cell line
# [16] = test system: NFKB activity in PANC-1 cells; experiment: TNF-induced NFKB activity (NFKB-dependent luciferase reporter); details: 10 ng/ml rHuTNF, PANC-1 reporter cells
# HCT116 cells = experiment: TNF-sensitised cell viability assay (CellTiter-Glo); details: Homo sapiens, HCT-116, read-out: HCT116 IC50 (at 10 ng/ml rHuTNF)
# SIK2 [17] = biological target: T2, SIK2; experiment: SIK2 kinase inhibition (IC50); details: read-out: Kinase: IC50 (nM) SIK2
# [18] = test system: MC38 colorectal carcinoma tumours; experiment: MC38 syngeneic mouse tumour model (Example 8.1); details: MC38; 40 mg/Kg, BID po
# [19] = test system: NFKB activity in MC38 cells; experiment: TNF-induced NFKB activity (NFKB-dependent luciferase reporter); details: 10 ng/ml rMuTNF
# [20] = female, C57BL/6, mouse, in vivo, 7 days
# MDR1 (P-gp) [21] = biological target: T3, MDR1 (P-gp); experiment: MDR1-MDCK effective efflux assay; details: dog; for efflux ratio: Table 5.1B
# [22] = biological target: MDR1 pump (P-gp), MDCK-MDR1 cells (Homo sapiens (Human), UniProt P08183); experiment: MDR1-MDCK effective efflux assay; details: Table 5.1B
# [23] = Human hepatocyte stability; type: in vitro ADME; details: human, hepatocytes
# SIK3 [24] = biological target: T1, SIK3; experiment: SIK3 kinase inhibition (IC50); details: read-out: Kinase: IC50 (nM) SIK3
# [25] = test system: HDAC4 phosphorylation in PANC-1 cells; experiment: HDAC4 phosphorylation (Meso Scale Discovery assay); details: 10 ng/mL rHuTNF, 3 h
# [26] = test system: SIK3 WT and KO MC38 clones; experiment: TNF-mediated killing of SIK3 wildtype vs SIK3 knockout MC38 clones (CTG); type: cell-based, mouse; details: sub-optimal TNF (<10 ng/ml), 72 h
# Protocol: The assay was performed as follows: MC38 SIK3 KO clones were generated using CRISPR. Cells were transfected with RNP complexes (Cas9+gRNA) containing gRNAS targeting SIK3 or non-targeting sequences (control). […] Subsequently, single cell clones were generated by limiting dilution. CRISPR-derived mutations in single clones were detected by next-generation sequencing and analysed using CRISPResso. Knockout and wildtype clones were selected and plated overnight. […] Cells treated with different concentrations of inhibitor but without TNF served as no TNF control. Cell viability was measured by CTG assay.
# [27] = MDCK wild type permeability/efflux; details: dog
# [28] = Mouse hepatocyte stability; type: in vitro ADME; details: hepatocytes
# MV4-11 cell line = experiment: Growth inhibition (GI50) of AML cell lines; type: cell-based; details: Homo sapiens, MV4-11; pMEF2C-positive; read-out: GI50 against MV4-11 cell line
# [29] = Metabolite profile in hepatocytes / in vivo
# Description: Metabolites are identified using high-resolution mass spectrometry.
# [30] = total plasma concentration at 30 mg/kg p.o dose, fold of C7 (C7 = 1×)
# Sequence of ABL1 wt (P00519 118-535 limits assumed): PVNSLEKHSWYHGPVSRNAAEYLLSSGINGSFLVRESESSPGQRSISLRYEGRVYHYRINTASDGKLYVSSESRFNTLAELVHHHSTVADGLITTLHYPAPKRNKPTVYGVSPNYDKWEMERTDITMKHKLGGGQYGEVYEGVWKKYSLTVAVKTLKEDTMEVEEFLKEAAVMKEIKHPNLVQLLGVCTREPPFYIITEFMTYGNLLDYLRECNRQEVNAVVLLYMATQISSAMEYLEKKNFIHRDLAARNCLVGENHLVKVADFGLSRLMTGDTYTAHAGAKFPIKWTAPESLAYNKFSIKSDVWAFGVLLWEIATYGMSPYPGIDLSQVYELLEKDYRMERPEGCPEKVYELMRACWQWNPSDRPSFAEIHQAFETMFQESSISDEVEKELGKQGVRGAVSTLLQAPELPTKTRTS
smiles,measurement,setting,value
Cc1nc(Nc2ncc(C(=O)Nc3c(Cl)ccnc3C)s2)cc(N2CCN(C)CC2)n1 [Compound C10],IC50,SRC (GST-HIS-tag),< 1.5 nM
same,IC50,ABL1 wt,4.3 nM
same,IC50,SIK3 [1]; read-out: SIK3 IC50,493 nM
same,IC50,SIK2 [2],138 nM
"Cc1nc(Nc2ncc(C(=O)Nc3c(Cl)ccnc3C)s2)cc(N2CCN(CCO)CC2)n1 [Compound B3, N-(4-chloro-2-methylpyridin-3-yl)-2-((6-(4-(2-hydroxyethyl)piperazin-1-yl)-2-methylpyrimidin-4-yl)amino)thiazole-5-carboxamide]",half-life,in vitro [3],0.967 h
same,half-life,in vitro [4],1.03 h
same,"Human plasma-protein binding, Percentage unbound (%)",[5]; Table 5A,7%
same,"Human plasma-protein binding, Percentage unbound (%)",[5]; Table 5.1A,7%
same,"Human liver microsomal stability, Intrinsic clearance",[6],24 µL/min/mg
same,remaining activity at 1 µM,RET,~100%
same,HCK residual activity,HCK,less than 1%
same,"Mouse liver microsomal stability, Intrinsic clearance (L/min/mg)",[7],22 µL/min/mg
same,Papp,MDR1 (P-gp) [8],20 ×10⁻⁶ cm/s
same,Papp,MDR1 (P-gp) [8]; Mean Papp A > B (10^−6 cm/s),< 0.8 ×10⁻⁶ cm/s
same,CSF1R residual activity,CSF1R,less than 1%
same,"Murine plasma protein binding, Percentage unbound (%)",[9]; Table 5A,11%
same,"Murine plasma protein binding, Percentage unbound (%)",[9]; Table 5.1A,11%
same,"% AUCextrap, Total","[10]; male, CD1, mouse",14%
same,remaining activity at 1 µM,BRAF,~50%
same,AUC(0-inf),in vivo,0.697 µM·h
same,Plasma concentration after 6 h,[11],29 nM
same,half-life,"[12]; iv, 1 mg/kg",0.2 h
same,half-life,"[12]; po, 30 mg/kg",2.4 h
same,"Cmax (ng/ml), Total","[12]; mouse, in vivo",99 ng/mL
same,"t1/2 (h), Free","[12]; mouse, in vivo",2.4 h
same,Papp,in vitro [13]; Mean Papp A > B (10^−6 cm/s),6.8 ×10⁻⁶ cm/s
same,Papp,in vitro [13]; Mean Papp B > B (10^−6 cm/s),20 ×10⁻⁶ cm/s
same,concentration at 2 h,"[14]; CD1, mouse, plasma, po, 30 mg/kg, Free concentration (nM) at 2 hours, mice, 30 mg/kg po, 2 hours",13 nM
same,concentration at 7 h,"[14]; CD1, mouse, plasma, po, 30 mg/kg, Free concentration (nM) at 7 hours, mice, 30 mg/kg po, 7 hours",3 nM
same,Cmax at 2 h,"[14]; mouse, plasma, po, 30 mg/kg",56 ng/mL
"Cc1nc(Nc2ncc(C(=O)Nc3c(C(F)F)csc3Cl)s2)cc(N2CCN(CCO)CC2)n1 [Compound E4, N-(2-chloro-4-(difluoromethyl)thiophen-3-yl)-2-((6-(4-(2-hydroxyethyl)piperazin-1-yl)-2-methylpyrimidin-4-yl)amino)thiazole-5-carboxamide]",half-life,in vitro [3],0.367 h
same,microsomal CLint,in vitro [3],65 µL/min/mg
same,half-life,in vitro [4],0.333 h
same,microsomal CLint,in vitro [4],70 µL/min/mg
same,"SIK3 IC50 (nM), relative to C7",SIK3 [1]; fold of the value of compound C7 (C7 = 1×),0.6×
same,IC50,"[15]; MC-38, read-out: MC38 IC50 (at 100 ng/mL rMuTNF)",< 100 nM
same,EC50,"[15]; MC-38, read-out: mean EC50 of sensitising MC38 tumour cells to TNF-mediated killing",< 100 nM
same,GI50,KASUMI-1 cell line,< 7.5 nM
same,"Human plasma-protein binding, Percentage unbound (%)",[5]; Table 5.1A,<1%
same,recovery at 4 h,"[5]; human, plasma",77%
same,Inhibition of NFKB activity (PANC-1),[16],++
same,IC50,HCT116 cells,< 100 nM
same,IC50,SIK2 [17],< 20 nM
same,Body weight increase (%),[18],12.0%
same,Non-treatment related death,[18],3/16
same,Tumour growth inhibition (%),[18],64%
same,Inhibition of NFKB activity (MC38),[19],++
same,HCK residual activity,HCK,less than 1%
same,DLT@BID dosing,[20],60 to 80 mg/kg
same,DLT@QD dosing,[20],n.d. @80 mg/kg
same,HRD in vivo @BID,[20],33 mg/kg
same,HRD in vivo @QD,[20],80 mg/kg
same,Papp,MDR1 (P-gp) [21]; MDCK-MDR1,3 ×10⁻⁶ cm/s
same,efflux ratio,"MDR1 (P-gp) [21]; MDCK-MDR1, MDCK-MDR1 cells, Mean Efflux Ratio (MDR1)",40 to 50
same,efflux ratio,"MDR1 (P-gp) [21]; MDCK-MDR1, P-gP driven efflux ratio (MDR1/wt)",11
same,"MDCK-MDR1 cells, Mean Efflux Ratio (MDR1)",[22],43
same,half-life,"[23]; read-out: Human hepatocyte stability, Half-life",1.07 h
same,microsomal CLint,"[23]; read-out: Human hepatocyte stability, Intrinsic clearance",22 µL/min/mg
same,half-life,[23]; read-out: half-life in the presence of human hepatocytes (converted),~1 h
same,IC50,SIK3 [24],< 20 nM
same,Inhibition of HDAC4 phosphorylation,[25],++
same,TNF-mediated killing in SIK3 WT vs KO MC38 clones,[26],induced TNF-mediated killing only in SIK3 WT clones
same,CSF1R residual activity,CSF1R,less than 1%
same,Papp,[27],5 ×10⁻⁶ cm/s
same,efflux ratio,[27],4.1
same,"Murine plasma protein binding, Percentage unbound (%)",[9]; Table 5.1A,2%
same,recovery at 4 h,"[9]; mouse, plasma",80%
same,half-life,[28],1.3 h
same,microsomal CLint,"[28]; read-out: Mouse hepatocyte stability, Intrinsic clearance",18 µL/min/mg
same,"% AUCextrap, Free","[10]; male, CD1, mouse",0.31%
same,"% AUCextrap, Total","[10]; male, CD1, mouse",0.31%
same,"AUCinf (nM*h), Free","[10]; male, CD1, mouse",148.39 nM·h
same,"AUClast (nM*h), Free","[10]; male, CD1, mouse",147.93 nM·h
same,"Rsq, Free",[10]; mouse,0.90
same,"Rsq, Total",[10]; mouse,0.90
same,AUC(0-inf),in vivo,5.5 µM·h
same,AUC(0-t),in vivo,5.48 µM·h
same,Cmax,in vivo,1240 ng/mL
same,MRT last,in vivo,5.88 h
same,Tmax,in vivo,2 h
same,half-life,in vivo,4.49 h
same,fold increase of concentration at 6 h compared to dasatinib,"[14]; mice, 30 mg/kg po, 6 h",3 fold
same,fold improvement of free serum concentration over C7,"[14]; mouse, in vivo",5 fold
same,fold improvement of total serum concentration over C7,"[14]; mouse, in vivo",9.6 fold
same,Cmax at 2 h,"[14]; mouse, plasma, po, 30 mg/kg",1210 ng/mL
same,concentration at 6 h,"[14]; mouse, plasma, po, 30 mg/kg, Free plasma concentration after 6 h (nM), mice, 30 mg/kg po, 6 h",17.9 nM
same,concentration at 6 h,"[14]; mouse, plasma, po, 30 mg/kg, Plasma concentration after 6 h (nM), mice, 30 mg/kg po, 6 h",662 nM
same,"AUC0-last (nM*h), relative to C7",[14]; [30],4.7×
same,"C max (ng/ml), relative to C7",[14]; [30],2.6×
same,"MRT0-last (h), relative to C7",[14]; [30],2×
same,"t1/2 (h), relative to C7",[14]; [30],3.2×
same,GI50,MV4-11 cell line,< 750 nM
same,quinone-imine reactive metabolite,[29],not observed
